# Key:
# α1-adrenergic receptor = test: [3H]prazosin binding (α1-receptors), rat cerebral cortices; details: 0.35 nM [3H]prazosin, read-out: Binding affinity for the α1-adrenergic receptor, Ki
# Experimental: [^3H]prazosin binding (α1-receptors):
# Rat cerebral cortices were homogenized in 50 volumes of ice-cold 50 mM Tris-HCl pH 7.4. The homogenates were centrifuged at 48,000 x g for 10 minutes, and the pellets were resuspended in the same volume of ice-cold buffer, centrifuged, and resuspended two more times. The final pellets were resuspended in 100 volumes of 50 mM Tris-HCl, pH 7.4, containing 0.1 % ascorbic acid and 10 µM pargyline. […] Non-specific binding was determined in the presence of 10 µM phentolamine. The incubations were terminated by rapid filtration through Whatman GF/B filters using a Brandel cell harvester, after which the filters were washed with 3x3 ml of ice-cold buffer. The radioactivity retained on the filters was determined by liquid scintillation counting.
# [1] = tested on: rhythmic bladder voiding contractions; test: Volume-induced rhythmic bladder voiding contractions in anaesthetized rats; type: in vivo; details: for AMPLITUDE mm Hg before treatment / FREQUENCY No. contr./15 min before treatment: baseline; for AMPLITUDE mm Hg before treatment / AMPLITUDE mm Hg after treatment: animals with frequency reduction <50%; for AMPLITUDE mm Hg before treatment / FREQUENCY No. contr./15 min before treatment / AMPLITUDE mm Hg after treatment / FREQUENCY No. contr./15 min after treatment: mean±S.E.; for BLADDER CONTRACTIONS Disappearance time: duration of bladder quiescence, mean (S.E. in next cell)
# Experimental: Female Sprague Dawley rats weighing 225-275 g (Crl: CD° BR, Charles River Italia) were used. The animals were housed with free access to food and water and were maintained on a forced 12 h alternating light-dark cycle at 22-24°C for at least one week, except during the experiment. The activity on the rhythmic bladder voiding contractions was evaluated according to the method of Dray (J. Pharmcol. Methods, 13:157, 1985), with some modifications as in Guarneri (Phannacol. Res., 27:173, 1993). […] The catheter was tied in place with a ligature around the external urethral orifice and was connected with conventional pressure transducers (Statham P23 ID/P23 XL). […] The bladder was then filled via the recording catheter by incremental volumes of warm (37°C) saline until reflex bladder voiding contractions occurred (usually 0.8-1.5 ml). Two parameters were recorded from the cystometrogram: the frequency of voiding contractions, calculated by counting the number of peaks/15 min of observation, and the mean amplitude of these contractions (mean height of the peaks in mmHg) in the same time period. For intravenous (i. v. ) injection of bioactive compounds, a PE 50 polyethylene tubing filled with physiological saline was inserted into the jugular vein.
# Bioactivity was assessed in individual animals (using 6-10 rats per dose), by recording the number and height of the peaks for 15 min after drug injection and comparing them with those previously recorded for 15 min after the intravenous administration of vehicle alone. […] The statistical significance of changes in frequency and amplitude before and after treatment was assessed by Student's t test for paired data. Changes showing a probability P<0.01 were considered significant.
# An all-or-none criterion was also used to compare bioactivity in terms of ED50 values. Rats showing a treatment-related change of ≥30% relative to the basal value were considered to be positive. Quantal dose-response curves and ED50 values were evaluated by the method of Bliss (J. Pharm. Pharmacol., 11:192, 1938).
# The rapid distension of the urinary bladder in urethane-anaesthetized rats produced a series of rhythmic bladder voiding contractions whose characteristics have been described (Maggie et al., Brain Res., 380, 83, 1986; Maggi, et al., J. Pharmacol. Exp. Ther., 230, 500, 1984). The frequency of these contractions is related to the sensory afferent arm of reflex micturition and to the integrity of the micturition centre, while their amplitude is a property of the efferent arm of the reflex (Maggi et al., J. Pharmacol. Meth., 15, 157, 1986; Maggi et al., Brain Res.. 415, 1, 1987; Maggi et al., Naun. Schmied. Arch. Pharmacol., 332, 276, 1986; Maggi et al., J. Urol., 136, 696, 1986).
structure (smiles),measurement,setting,value
"COc1ccccc1N1CCN(CCN(C(=O)C2CCCCC2)c2ccccn2)CC1 [Compound A, N-{2-[4-(2-methoxyphenyl)-1-piperazinyl]-ethyl}-N-(2-pyridyl)-cyclohexanecarboxamide]",Ki,α1-adrenergic receptor,296 nM
same,AMPLITUDE mm Hg before treatment,[1]; 1 µg/kg i.v. group,25.4±2.0 mm Hg
same,FREQUENCY No. contr./15 min before treatment,[1]; 1 µg/kg i.v. group,11.7±1.0 No. contr./15 min
same,AMPLITUDE mm Hg after treatment,[1]; 1 µg/kg i.v.,23.1±1.9 mm Hg
same,BLADDER CONTRACTIONS Disappearance time,[1]; 1 µg/kg i.v.,1.34 min
same,FREQUENCY No. contr./15 min after treatment,[1]; 1 µg/kg i.v.,11.6±1.3 No. contr./15 min
same,AMPLITUDE mm Hg before treatment,[1]; 3 µg/kg i.v. group,25.1±2.2 mm Hg
same,FREQUENCY No. contr./15 min before treatment,[1]; 3 µg/kg i.v. group,11.5±0.7 No. contr./15 min
same,AMPLITUDE mm Hg after treatment,[1]; 3 µg/kg i.v.,21.7±2.0 mm Hg
same,BLADDER CONTRACTIONS Disappearance time,[1]; 3 µg/kg i.v.,2.15 min
same,FREQUENCY No. contr./15 min after treatment,[1]; 3 µg/kg i.v.,9.1±1.0 No. contr./15 min
same,AMPLITUDE mm Hg before treatment,[1]; 10 µg/kg i.v. group,26.0±3.8 mm Hg
same,FREQUENCY No. contr./15 min before treatment,[1]; 10 µg/kg i.v. group,11.5±1.5 No. contr./15 min
same,AMPLITUDE mm Hg after treatment,[1]; 10 µg/kg i.v.,22.3±3.8 mm Hg
same,BLADDER CONTRACTIONS Disappearance time,[1]; 10 µg/kg i.v.,8.13 min
same,FREQUENCY No. contr./15 min after treatment,[1]; 10 µg/kg i.v.,5.9±1.6 No. contr./15 min
same,AMPLITUDE mm Hg before treatment,[1]; 30 µg/kg i.v. group,28.5±2.5 mm Hg
same,FREQUENCY No. contr./15 min before treatment,[1]; 30 µg/kg i.v. group,11.8±0.7 No. contr./15 min
same,AMPLITUDE mm Hg after treatment,[1]; 30 µg/kg i.v.,25.0±4.0 mm Hg
same,BLADDER CONTRACTIONS Disappearance time,[1]; 30 µg/kg i.v.,8.87 min
same,FREQUENCY No. contr./15 min after treatment,[1]; 30 µg/kg i.v.,3.8±0.7 No. contr./15 min
same,AMPLITUDE mm Hg before treatment,[1]; 100 µg/kg i.v. group,28.0±4.6 mm Hg
same,FREQUENCY No. contr./15 min before treatment,[1]; 100 µg/kg i.v. group,12.0±0.9 No. contr./15 min
same,AMPLITUDE mm Hg after treatment,[1]; 100 µg/kg i.v.,25.7±2.9 mm Hg
same,BLADDER CONTRACTIONS Disappearance time,[1]; 100 µg/kg i.v.,12.56 min
same,FREQUENCY No. contr./15 min after treatment,[1]; 100 µg/kg i.v.,4.1±1.1 No. contr./15 min
same,FREQUENCY No. contr./15 min before treatment,[1]; 300 µg/kg i.v. group,9.5±0.6 No. contr./15 min
same,BLADDER CONTRACTIONS Disappearance time,[1]; 300 µg/kg i.v.,13.37 min
same,FREQUENCY No. contr./15 min after treatment,[1]; 300 µg/kg i.v.,2.2±0.5 No. contr./15 min
same,ED (10 min disappearance of contractions),"[1]; Rattus norvegicus, iv, 10 min, extrapolated dose inducing 10 min of disappearance of the contractions, linear regression",0.037 mg/kg
same,maximal change of amplitude of the rhythmic bladder voidings,"[1]; i.v., no dose-dependence observed",about 13%
"CCN(CC)CC#CCOC(=O)C(O)(c1ccccc1)C1CCCCC1 (stereo not shown) [Oxybutynin, oxybutynin]",AMPLITUDE mm Hg before treatment,[1]; 30 µg/kg i.v. group,26.7±2.7 mm Hg
same,FREQUENCY No. contr./15 min before treatment,[1]; 30 µg/kg i.v. group,14.8±1.9 No. contr./15 min
same,AMPLITUDE mm Hg after treatment,[1]; 30 µg/kg i.v.,23.3±2.5 mm Hg
same,FREQUENCY No. contr./15 min after treatment,[1]; 30 µg/kg i.v.,15.5±2.3 No. contr./15 min
same,AMPLITUDE mm Hg before treatment,[1]; 100 µg/kg i.v. group,25.0±3.7 mm Hg
same,FREQUENCY No. contr./15 min before treatment,[1]; 100 µg/kg i.v. group,13.3±1.1 No. contr./15 min
same,AMPLITUDE mm Hg after treatment,[1]; 100 µg/kg i.v.,18.7±2.7 mm Hg
same,FREQUENCY No. contr./15 min after treatment,[1]; 100 µg/kg i.v.,14.7±1.0 No. contr./15 min
same,AMPLITUDE mm Hg before treatment,[1]; 300 µg/kg i.v. group,20.9±1.7 mm Hg
same,FREQUENCY No. contr./15 min before treatment,[1]; 300 µg/kg i.v. group,10.1±0.7 No. contr./15 min
same,AMPLITUDE mm Hg after treatment,[1]; 300 µg/kg i.v.,13.6±0.8 mm Hg
same,FREQUENCY No. contr./15 min after treatment,[1]; 300 µg/kg i.v.,8.8±0.8 No. contr./15 min
same,AMPLITUDE mm Hg before treatment,[1]; 1000 µg/kg i.v. group,20.3±2.4 mm Hg
same,FREQUENCY No. contr./15 min before treatment,[1]; 1000 µg/kg i.v. group,9.7±0.8 No. contr./15 min
same,AMPLITUDE mm Hg after treatment,[1]; 1000 µg/kg i.v.,11.8±1.2 mm Hg
same,FREQUENCY No. contr./15 min after treatment,[1]; 1000 µg/kg i.v.,9.5±0.8 No. contr./15 min
same,AMPLITUDE mm Hg before treatment,[1]; 3000 µg/kg i.v. group,18.0±1.4 mm Hg
same,FREQUENCY No. contr./15 min before treatment,[1]; 3000 µg/kg i.v. group,10.0±0.7 No. contr./15 min
same,AMPLITUDE mm Hg after treatment,[1]; 3000 µg/kg i.v.,10.8±1.0 mm Hg
same,FREQUENCY No. contr./15 min after treatment,[1]; 3000 µg/kg i.v.,9.9±1.5 No. contr./15 min
same,ED50,"[1]; Rattus norvegicus, iv, read-out: ED50 AMPLITUDE (and 95% confidence limits)",0.24 mg/kg
